Results: patent US20250034139A1, “AMINE COMPOUNDS HAVING ANTI-INFLAMMATORY, ANTIFUNGAL, ANTIPARASITIC, AND ANTICANCER ACTIVITY” (PHARMA CINQ, LLC, priority 2013, published 2025)
Values after ≈ are worked out from the molar mass of the structure shown. Like-named read-outs stand apart in the source and are kept apart here.

Experiments:
Candida albicans strains = assay: Example N: MIC and MFC (CLSI) against Candida albicans; format: cell-based; conditions: Candida albicans, three clinical strains; for MIC: read-out: MIC 100%, Range
Experimental: (§1) The objective of this study was to determine the antifungal activity of eight experimental compounds against a representative panel of fungal isolates, including Candida albicans, C. glabrata, Cryptococcus neoformans, Trichophyton rubrum, Aspergillus fumigatus, and Rhizopus spp. Antifungal activity was measured by minimum inhibitory concentration (MIC) and minimum fungicidal concentration (MFC).
(§2) Three recent clinical strains of each species, taken from the culture collection at the Center for Medical Mycology, Case Western University, were tested.
(§3) Compounds in powder form were dissolved in DMSO. Serial dilutions of each compound were then prepared in RPMI-1640 in a range of […].
(§4) MIC testing was performed according to the CLSI M27-A3 and M38-A2 standards for the susceptibility testing of yeasts and filamentous fungi, respectively (1, 2). Test isolates were subcultured from frozen slants onto potato dextrose agar plates (Trichophyton rubrum was subcultured onto oatmeal plates for conidia production) and checked for purity. Inocula were then prepared in RPMI-1640 (YNB for Cryptococcus) to a concentration of 0.5-2.5×10^3 colony-forming units (CFU)/ml or 0.4-5×10^4 conidia/ml for yeast and filamentous fungi, respectively.
(§5) MFC determinations were performed according to the modifications previously described by Canton et al. and Ghannoum and Isham. (3, 4) Specifically, the total contents of each clear well from the MIC assay were subcultured onto potato dextrose agar. To avoid antifungal carryover, the aliquots were allowed to soak into the agar and then were streaked for isolation once dry, thus removing the cells from the drug source.

[1] = test system: Cryptococcus neoformans (serotype A); assay: Example L: Cryptococcus neoformans (serotype A) growth inhibition; format: cell-based; conditions: Cryptococcus neoformans; for MIC: read-out: MIC, uM (concentration for maximum - 99% of inhibition)
Experimental: Cryptococcus neoformans (serotype A) were plated in 96 well plates with 144 μl/well of 5×10e5 CFU/ml in YPD growth medium. Diluted compounds were then added to each well with concentration ranged from 0.05 to 10 μM as final concentration in duplicates. The plates were inoculated at 30° C. Two readings of OD at 600 nm were measured after 18 hr and […] treatments.
C12-imidazol had relative weak activity against Cryptococcus serotype A at low concentration. Data plotted was based on 26 hour reading because 18 hour reading was too low.
• 1. Pick a single colony of Cryptococcus from the Sabouraud Dextrose agar plate using the inoculum loop and inoculate into a 125 ml flask containing 25 ml of YPD growth medium • 2. Incubate at 30° C. with shaking at 220 rpm for 24 hours with loosen lid to allow air in and facilitates growth. • 3. Examine an aliquot of the culture under a microscope for yeast cell morphology and lack of bacterial contamination. • 4. Dilute the overnight culture with YPD medium at 1:100 dilution and count the number of cells as 8×10^6 cfu/ml. • 5. Make a final concentration of cells suspension at 5×10^5 cfu/ml in YPD medium after the stock culture had been stored at 4° C. for 3 days. • 6. Plate 144 μl/well of 5×10^5 cfu/ml cell suspension on 96-well plates. Part-II: Cryptococcus Growth Inhibition Testing with Compounds • 1. From 10 mM DMSO stock solutions, make serial dilutions of compounds to 0.0013, 0.0025, 0.0125, 0.025, 0.05, 0.125 and 0.25 mM solution • 2. Add 6 ul each of diluted compound solutions per well in duplicates. The final concentrations were 0, 0.05, 0.1, 0.5, 1.0, 2.0, 5.0 and 10 micromolar. • 3. Incubated all plates at 30° C. overnight with 175 rpm shaking. • 4. Read absorbance at OD600 after 18 and 26 hours for each plate. • 5. Calculated the % inhibition and IC50 of each compound against the untreated cell.

[2] = test system: imiquimod-induced dermatitis; conditions: for Ear thickness, Mean ± SEM: imiquimod-treated mice; for PASI Score, Mean ± SEM: scale 0-12
Experimental: Topical imiquimod (IMQ), a toll-like receptor agonist, has been established as a model of Inflammatory skin diseases including psoriasis and atopic dermatitis. Dermal inflammatory changes and gene expression in mice treated with topical imiquimod mimic human psoriasis and dermatitis (van der Fits et al., 2009; Swindell et al., 2011). The effect of a set of compounds of the invention were tested in a mouse model of imiquimod-induced dermatitis, with topical tacrolimus and dexamethasone as comparators for assessing safety and efficacy relative to standard agents used to treat dermatitis in humans.
Commercial 0.1% tacrolimus ointment (ProTopic™[…]) was also used as an active comparator. Petrolatum containing 10% ethanol was used as a control treatment.
Female Balb/C mice (8 weeks old) were randomized and divided into groups of 5 animals each. Polyethylene collars were affixed to the mice to prevent them from easily scratching their ears. 5% imiquimod was applied to both ears of each mouse (20 microliters per ear) daily for 5 days, and then every other day for the full duration of the study. […] On day 7 after initiation of imiquimod, treatment with topical agents was started. Both ears of each mouse were treated with test ointments, with one compound per mouse.
Ear thickness and PASI assessments (Psoriasis Area and Severity Index, a standard psoriasis scoring system) were recorded twice per week throughout the study. The PASI score comprises the sum of evaluations of swelling, erythema and scaling on scales from 0 to 4; the maximum PASI score is 12, and the minimum, in unaffected skin, is 0).

Candida glabrata strains = assay: Example N: MIC and MFC (CLSI) against Candida glabrata; format: cell-based; conditions: Nakaseomyces glabratus; for MIC: read-out: MIC 100%; for MFC: range over Candida glabrata strains, in 48 hr
Experimental: as §1, §2, §3, §4, §5

Rhizopus strains = assay: Example N: MIC and MFC (CLSI) against Rhizopus; format: cell-based, Rhizopus spp.; conditions: for MIC50 / MIC: Rhizopus; for MIC: read-out: MIC 100%; for MFC: range over Rhizopus strains, in 48 hr
Experimental: as §1, §2, §3, §4, §5

THP-1 cells = assay: Example C: compound screen, viable THP-1 cell count after 5 hours +/- LPS; format: cell-based, Human; conditions: for ability to inactivate pro-inflammatory THP-1 cells, in words (relative to benchmark AC): LPS-treated THP-1 cells
Text: Background: THP-1 is a human acute myeloid leukemia (AML) cell line that can be induced into a macrophage-like cell with vitamin-D3 (vit-D3). In the macrophage, LPS (lipopolysaccharide; endotoxin) stimulation of toll-like receptor 4 (TLR-4) leads to NF-κB activation and secretion of inflammatory cytokines but also the priming of programmed death pathways through RIP and Caspase 8. The balance of this complex regulatory network is dependent on highly specific kinases, enzymes that require ATP. Disruption of either cytosolic pH or ATP availability/energy level uncouples this control network and the can macrophage shift away from production of inflammatory cytokines towards a programmed death event, which has the net effect of limiting inflammatory damage.

[3] = read-out: IC50, uM (concentration for 50% of inhibition), OD of 26 hour reading, 30° C., XLfit
[4] = OD of 26 hour reading, 30° C., XLfit
[5] = topical ointment 0.06% active drug (dexamethasone 0.03%, tacrolimus 0.1%)

Row | SMILES | MIC (Candida albicans strains; 24 hr) [µg/mL] | MIC (Candida albicans strains; 48 hr) [µg/mL] | MFC (Candida albicans strains; 48 hr) [µg/mL] | IC50 [1, 3] [µM] | MIC [1, 4] [µM] | Ear thickness, Mean ± SEM [2, 5] | D BW (g) ([2]; mouse, in vivo) | PASI Score, Mean ± SEM [2, 5] | MIC50 (Candida glabrata strains; 24 h) [µg/mL] | MIC (Candida glabrata strains; 24 h) [µg/mL] | MIC50 (Candida glabrata strains; 48 h) [µg/mL] | MIC (Candida glabrata strains; 48 h) [µg/mL] | MFC (Candida glabrata strains) [µg/mL] | MIC50 (Rhizopus strains; 24 h) [µg/mL] | MIC (Rhizopus strains; 24 h) [µg/mL] | MIC50 (Rhizopus strains; 48 h) [µg/mL] | MIC (Rhizopus strains; 48 h) [µg/mL] | other results
1 | COc1ccc(OCCCCCCCCNc2ncnc3ccccc23)cc1 [AE, N-[8-(4-Methoxyphenoxy)octyl]quinazolin-4-amine] | 0.5 to 4 (≈ 1.32 to 10.5 µM) | 4 (≈ 10.5 µM) | 8 to 64 (≈ 21.1 to 169 µM) | 0.54 | 14.7 (≈ 5.59 µg/mL) | 0.846 ± 0.023 | +0.4 g | 11.550 ± 0.281 | 4 (≈ 10.5 µM) | 4 (≈ 10.5 µM) | 4 to 8 (≈ 10.5 to 21.1 µM) | 4 to 8 (≈ 10.5 to 21.1 µM) | 16 to 64 (≈ 42.2 to 169 µM) | < 0.12 | 1 to 2 (≈ 2.64 to 5.27 µM) | 1 to 2 (≈ 2.64 to 5.27 µM) | 1 to 4 (≈ 2.64 to 10.5 µM) | Body Weight (mean ± SEM), Final ([2]; mouse, in vivo): 21.3 ± 0.4 g; Body Weight (mean ± SEM), Initial ([2]; mouse, in vivo): 20.9 ± 0.5 g; MIC at 50% inhibition (Rhizopus strains; 24 hrs): < 0.12 µg/mL; MFC (Rhizopus strains): 64 µg/mL (≈ 169 µM)
2 | c1ccc(Oc2cccc(CNc3ccnc4ccccc34)c2)cc1 [AF, N-(3-Phenoxybenzyl)quinolin-4-amine] | – | – | – | – | – | 0.355 ± 0.005 | +0.4 g | 3.575 ± 0.158 | – | – | – | – | – | – | – | – | – | Reduction in viable THP-1 cell count (percent change) from 0 hours, Mean ± SE (THP-1 cells; Compound (0.1 μM), No LPS): −8.99 ± 2.00%; Reduction in viable THP-1 cell count (percent change) from 0 hours, Mean ± SE (THP-1 cells; Compound (0.1 μM), Plus LPS): −27.32 ± 4.69%; Reduction in viable THP-1 cell count (percent change) from 0 hours, Mean ± SE (THP-1 cells; Compound (1.0 μM), No LPS): −6.02 ± 2.31%; Reduction in viable THP-1 cell count (percent change) from 0 hours, Mean ± SE (THP-1 cells; Compound (1.0 μM), Plus LPS): −44.82 ± 2.46%; ability to inactivate pro-inflammatory THP-1 cells, in words (relative to benchmark AC) (THP-1 cells): higher activity than the active benchmark compound AC; Ear thickness, Mean ± SEM ([2]; topical ointment AF 0.6%): 0.390 ± 0.008; D BW ([2]; mouse, in vivo): -0.4 g; Hair growth on the imiquimod-affected head area, in words ([2]; mouse, in vivo): hair growth was maintained; PASI Score, Mean ± SEM ([2]; topical ointment AF 0.6%): 4.875 ± 0.155
3 | CCCCCCOc1cccc(CNc2ncnc3ccccc23)c1 [AK, N-[3-(Hexyloxy)benzyl]quinazolin-4-amine] | – | – | – | 0.25 | 19.5 (≈ 6.54 µg/mL) | – | – | – | – | – | – | – | – | – | – | – | – | –
4 | CCCCCCOCCCCCCCCNc1ccnc2cc(Cl)ccc12 [AW, 7-Chloro-N-[8-(hexyloxy)octyl]quinolin-4-amine] | 4 to 8 (≈ 10.2 to 20.5 µM) | 8 (≈ 20.5 µM) | 8 to 32 (≈ 20.5 to 81.8 µM) | 1.74 | 13.8 (≈ 5.38 µg/mL) | – | – | – | 4 (≈ 10.2 µM) | 8 (≈ 20.5 µM) | 8 (≈ 20.5 µM) | 8 to 16 (≈ 20.5 to 40.9 µM) | 16 to 32 (≈ 40.9 to 81.8 µM) | 4 (≈ 10.2 µM) | 4 to 8 (≈ 10.2 to 20.5 µM) | 4 to 8 (≈ 10.2 to 20.5 µM) | 8 (≈ 20.5 µM) | –
5 | c1ccc(Oc2cccc(CNc3ncnc4ccccc34)c2)cc1 [BM, N-(3-Phenoxybenzyl)quinazolin-4-amine] | – | – | – | 0.69 | 17.5 (≈ 5.73 µg/mL) | 0.577 ± 0.019 | +0.1 g | 9.250 ± 0.183 | – | – | – | – | – | – | – | – | – | IC50 ([1]; Macrophage, direct inhibition, values of the earlier study (Table 25), read-out: IC50 value (μM) for inhibition of fungal growth, No macrophages): 0.69 µM; Reduction in viable THP-1 cell count (percent change) from 0 hours, Mean ± SE (THP-1 cells; Compound (0.1 μM), No LPS): −3.96 ± 0.82%; Reduction in viable THP-1 cell count (percent change) from 0 hours, Mean ± SE (THP-1 cells; Compound (0.1 μM), Plus LPS): −25.80 ± 3.26%; Reduction in viable THP-1 cell count (percent change) from 0 hours, Mean ± SE (THP-1 cells; Compound (1.0 μM), No LPS): −4.18 ± 2.46%; Reduction in viable THP-1 cell count (percent change) from 0 hours, Mean ± SE (THP-1 cells; Compound (1.0 μM), Plus LPS): −39.17 ± 2.18%; ability to inactivate pro-inflammatory THP-1 cells, in words (relative to benchmark AC) (THP-1 cells): higher activity than the active benchmark compound AC; Body Weight (mean ± SEM), Final ([2]; mouse, in vivo): 20.9 ± 0.6 g; Body Weight (mean ± SEM), Initial ([2]; mouse, in vivo): 20.8 ± 0.7 g
6 | CCCCCCOCCCCCCCCCCNc1ccnc2ccccc12 [Compound AL, N-[10-(Hexyloxy)decyl]quinolin-4-amine] | 2 to 4 (≈ 5.2 to 10.4 µM) | 2 to 4 (≈ 5.2 to 10.4 µM) | 4 to 8 (≈ 10.4 to 20.8 µM) | 3.01 | 10.5 (≈ 4.03 µg/mL) | – | – | – | 2 (≈ 5.2 µM) | 2 (≈ 5.2 µM) | 2 to 4 (≈ 5.2 to 10.4 µM) | 4 (≈ 10.4 µM) | 4 (≈ 10.4 µM) | 4 (≈ 10.4 µM) | 4 (≈ 10.4 µM) | 4 to 8 (≈ 10.4 to 20.8 µM) | 8 (≈ 20.8 µM) | –
7 | CCCCCCOCCCCCCCCNc1ccnc2c(Cl)cccc12 [Compound AX, 8-Chloro-N-[8-(hexyloxy)octyl]quinolin-4-amine] | 0.5 to 4 (≈ 1.28 to 10.2 µM) | 2 to 4 (≈ 5.12 to 10.2 µM) | 4 to 32 (≈ 10.2 to 81.8 µM) | 0.91 | 17.3 (≈ 6.76 µg/mL) | – | – | – | 2 (≈ 5.12 µM) | 8 (≈ 20.5 µM) | 8 (≈ 20.5 µM) | 8 (≈ 20.5 µM) | 8 to 64 (≈ 20.5 to 164 µM) | 0.5 to 1 (≈ 1.28 to 2.56 µM) | 1 to 2 (≈ 2.56 to 5.12 µM) | 1 (≈ 2.56 µM) | 1 to 2 (≈ 2.56 to 5.12 µM) | MFC (Rhizopus strains): > 64 µg/mL
